What was measured:
RPMI-8226 = assay: NCI antiproliferative SRB assay, Leukemia panel; type: cell-based, Human
A549/ATCC = assay: NCI antiproliferative SRB assay, Non-Small Cell Lung Cancer panel; type: cell-based, Human
EKVX = assay: as above; type: cell-based, Human
NCI-H322M = assay: as above; type: cell-based, Human
NCI-H460 = assay: as above; type: cell-based, Human
NCI-H522 = assay: as above; type: cell-based, Human
HCC-2998 = assay: NCI antiproliferative SRB assay, Colon Cancer panel; type: cell-based, Human
KM12 = assay: as above; type: cell-based, Human
SF-295 = assay: NCI antiproliferative SRB assay, CNS Cancer panel; type: cell-based, Human
SNB-19 = assay: NCI antiproliferative SRB assay, CNS Cancer panel; type: cell-based, Human
U251 = assay: NCI antiproliferative SRB assay, CNS Cancer panel; type: cell-based
LOX IMVI = assay: NCI antiproliferative SRB assay, Melanoma panel; type: cell-based, Human
M14 = assay: NCI antiproliferative SRB assay, Melanoma panel; type: cell-based, Human
MDA-MB-435 = assay: NCI antiproliferative SRB assay, Melanoma panel; type: cell-based
SK-MEL-2 = assay: NCI antiproliferative SRB assay, Melanoma panel; type: cell-based, Human; conditions: 5-dose 0.01-100 µM
[1] = Homo sapiens, 5-dose 0.01-100 µM
[2] = Homo sapiens, 5-dose 0.01-100 µM, read-out: LC50 (the source's name)

COc1ccc(NC(=O)n2nc(/C=C/c3ccc(O)c(OC)c3)cc2/C=C/c2ccc(O)c(OC)c2)cc1 [3b]
TGI (RPMI-8226; 5-dose 0.01-100 µM): 29.2 µM | GI50 (RPMI-8226; [1]): 3.38 µM | CC50 (RPMI-8226; [2]): > 100 µM | %GI (RPMI-8226; one dose 10 µM): 78.70% | GP (growth percent) (RPMI-8226; one dose 10 µM): 21.30 | TGI (A549/ATCC; 5-dose 0.01-100 µM): 97.9 µM | GI50 (A549/ATCC; [1]): 5.5 µM | LC50 (50% lethal concentration) (A549/ATCC; [1]): > 100 µM | %GI (A549/ATCC; one dose 10 µM): 72.71% | GP (growth percent) (A549/ATCC; one dose 10 µM): 27.29 | TGI (EKVX; 5-dose 0.01-100 µM): 83.7 µM | GI50 (EKVX; [1]): 6.62 µM | CC50 (EKVX; [2]): > 100 µM | %GI (EKVX; one dose 10 µM): 47.61% | GP (growth percent) (EKVX; one dose 10 µM): 52.39 | TGI (NCI-H322M; 5-dose 0.01-100 µM): 72.5 µM | GI50 (NCI-H322M; [1]): 3.87 µM | CC50 (NCI-H322M; [2]): > 100 µM | %GI (NCI-H322M; one dose 10 µM): 41.86% | GP (growth percent) (NCI-H322M; one dose 10 µM): 58.14 | TGI (NCI-H460; 5-dose 0.01-100 µM): 31.4 µM | GI50 (NCI-H460; [1]): 4.24 µM | CC50 (NCI-H460; [2]): > 100 µM | %GI (NCI-H460; one dose 10 µM): 85.78% | GP (growth percent) (NCI-H460; one dose 10 µM): 14.22 | TGI (NCI-H522; 5-dose 0.01-100 µM): 12.7 µM | GI50 (NCI-H522; [1]): 1.76 µM | CC50 (NCI-H522; [2]): > 100 µM | %GI (NCI-H522; one dose 10 µM): 113.52% | GP (growth percent) (NCI-H522; one dose 10 µM): −13.52 | TGI (HCC-2998; 5-dose 0.01-100 µM): >100 µM | GI50 (HCC-2998; [1]): 5.78 µM | CC50 (HCC-2998; [2]): > 100 µM | %GI (HCC-2998; one dose 10 µM): 25.09% | GP (growth percent) (HCC-2998; one dose 10 µM): 74.91 | TGI (KM12; 5-dose 0.01-100 µM): 20.7 µM | GI50 (KM12; [1]): 3.19 µM | CC50 (KM12; [2]): > 100 µM | %GI (KM12; one dose 10 µM): 82.11% | GP (growth percent) (KM12; one dose 10 µM): 17.89 | TGI (SF-295; 5-dose 0.01-100 µM): 53.2 µM | GI50 (SF-295; [1]): 6.25 µM | CC50 (SF-295; [2]): > 100 µM | %GI (SF-295; one dose 10 µM): 48.38% | GP (growth percent) (SF-295; one dose 10 µM): 51.62 | TGI (SNB-19; 5-dose 0.01-100 µM): 86.7 µM | GI50 (SNB-19; [1]): 5.28 µM | CC50 (SNB-19; [2]): > 100 µM | %GI (SNB-19; one dose 10 µM): 61.15% | GP (growth percent) (SNB-19; one dose 10 µM): 38.85 | GI50 (U251; Homo sapiens, U-251): 3.55 µM | CC50 (U251; Homo sapiens, U-251, U251, 5-dose 0.01-100 µM, read-out: LC50 (the source's name)): > 100 µM | TGI (U251; U251, 5-dose 0.01-100 µM): 20.9 µM | %GI (U251; U251, one dose 10 µM): 73.97% | GP (growth percent) (U251; U251, one dose 10 µM): 26.03 | TGI (LOX IMVI; 5-dose 0.01-100 µM): >100 µM | GI50 (LOX IMVI; [1]): 3.95 µM | CC50 (LOX IMVI; [2]): > 100 µM | %GI (LOX IMVI; one dose 10 µM): 72.41% | GP (growth percent) (LOX IMVI; one dose 10 µM): 27.59 | TGI (M14; 5-dose 0.01-100 µM): 41.5 µM | GI50 (M14; [1]): 3.15 µM | CC50 (M14; [2]): > 100 µM | %GI (M14; one dose 10 µM): 95.03% | GP (growth percent) (M14; one dose 10 µM): 4.97 | TGI (MDA-MB-435; 5-dose 0.01-100 µM): 4.68 µM | GI50 (MDA-MB-435; Homo sapiens): 1.25 µM | CC50 (MDA-MB-435; [2]): > 100 µM | %GI (MDA-MB-435; one dose 10 µM): 136.25% | GP (growth percent) (MDA-MB-435; one dose 10 µM): −36.25 | TGI (SK-MEL-2): 18.1 µM | GI50 (SK-MEL-2; Homo sapiens): 3.23 µM | CC50 (SK-MEL-2; Homo sapiens, read-out: LC50 (the source's name)): > 100 µM
